The nature of series [1]: Pharmacokinetic profile, IV and PO administration. Type of series: in vivo, female rats. Also noted: AUC 0-inf: concentration or dose not given beside the values. The note with it: for AUC 0-inf / Cmax / F / Tmax / t½: PO, free base or salt form as labelled.
In series [2] the target is T1, JAK2 kinase (Homo sapiens, UniProt O60674).
T1 construct: purchased Life Technologies (Drug Discovery and Development Services, Madison, Wis.)
The experiment in a line: JAK2 kinase assay, Z'-LYTE technology. It counts as biochemical. How it is done: (§1) Biochemical assays to measure the inhibitory effects of the compounds were performed by the Drug Discovery and Development Services at Life Technologies (Madison, Wis.). JAK2 kinase assays were performed using Z′-LYTE® technology, while ALK2 inhibition was tested using a LanthaScreen® binding assay.

The target of series [3] is T2, ALK2 (Homo sapiens, UniProt Q04771).
T2 construct: purchased Life Technologies (Drug Discovery and Development Services, Madison, Wis.)
T2 sequence (Q04771 21-509): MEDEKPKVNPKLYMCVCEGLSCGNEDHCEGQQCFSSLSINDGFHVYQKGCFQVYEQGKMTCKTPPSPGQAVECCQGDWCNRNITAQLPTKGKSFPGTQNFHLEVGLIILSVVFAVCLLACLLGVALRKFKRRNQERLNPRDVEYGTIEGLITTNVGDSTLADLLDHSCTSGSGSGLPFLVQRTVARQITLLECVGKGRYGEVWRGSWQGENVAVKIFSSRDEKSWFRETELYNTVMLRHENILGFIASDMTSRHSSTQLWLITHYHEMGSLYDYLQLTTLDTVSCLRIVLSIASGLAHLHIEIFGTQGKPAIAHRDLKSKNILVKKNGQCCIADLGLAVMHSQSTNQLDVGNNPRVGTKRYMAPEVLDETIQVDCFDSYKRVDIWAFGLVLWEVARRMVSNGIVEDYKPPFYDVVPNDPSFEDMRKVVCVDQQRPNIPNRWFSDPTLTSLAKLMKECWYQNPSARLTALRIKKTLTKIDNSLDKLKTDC
In words: ALK2 inhibition, LanthaScreen binding assay. The method, then: as §1

In series [4] the test system is hepcidin expression induced by BMP2 in HEPG2 cells. The experiment in a line: BMP2-induced hepcidin expression in HEPG2 cells. It counts as cell-based. The note with it: 0.3 μM.
The test system of series [5] is hepcidin expression of HEPG2 cells. The experiment in a line: Baseline hepcidin expression in HEPG2 cells, real-time RT-PCR. Type of series: cell-based. Particulars: 3 μM, 6 hours, HEPG2, normalized to β-actin. How it is done:
Hepcidin expression of HEPG2 cells treated with exemplary compounds of the invention was tested. […] To observe the ability of the compounds to effect baseline hepcidin expression, HEPG2 (hepatocellular carcinoma) cells were treated with compound for 6 hours and then assayed for hepcidin expression by real-time RT-PCR (normalized to levels of β-actin). Hepcidin expression was lowered in a dose dependent manner. Hepcidin expression was inhibited by 90% at a 3 μM concentration of Compound 12. […] In contrast, Compound 7 treated cells produced a 50% decrease in the induction when treated at 0.3 μM.

Some results are limits rather than exact numbers.

T1 sequence (O60674 whole entry): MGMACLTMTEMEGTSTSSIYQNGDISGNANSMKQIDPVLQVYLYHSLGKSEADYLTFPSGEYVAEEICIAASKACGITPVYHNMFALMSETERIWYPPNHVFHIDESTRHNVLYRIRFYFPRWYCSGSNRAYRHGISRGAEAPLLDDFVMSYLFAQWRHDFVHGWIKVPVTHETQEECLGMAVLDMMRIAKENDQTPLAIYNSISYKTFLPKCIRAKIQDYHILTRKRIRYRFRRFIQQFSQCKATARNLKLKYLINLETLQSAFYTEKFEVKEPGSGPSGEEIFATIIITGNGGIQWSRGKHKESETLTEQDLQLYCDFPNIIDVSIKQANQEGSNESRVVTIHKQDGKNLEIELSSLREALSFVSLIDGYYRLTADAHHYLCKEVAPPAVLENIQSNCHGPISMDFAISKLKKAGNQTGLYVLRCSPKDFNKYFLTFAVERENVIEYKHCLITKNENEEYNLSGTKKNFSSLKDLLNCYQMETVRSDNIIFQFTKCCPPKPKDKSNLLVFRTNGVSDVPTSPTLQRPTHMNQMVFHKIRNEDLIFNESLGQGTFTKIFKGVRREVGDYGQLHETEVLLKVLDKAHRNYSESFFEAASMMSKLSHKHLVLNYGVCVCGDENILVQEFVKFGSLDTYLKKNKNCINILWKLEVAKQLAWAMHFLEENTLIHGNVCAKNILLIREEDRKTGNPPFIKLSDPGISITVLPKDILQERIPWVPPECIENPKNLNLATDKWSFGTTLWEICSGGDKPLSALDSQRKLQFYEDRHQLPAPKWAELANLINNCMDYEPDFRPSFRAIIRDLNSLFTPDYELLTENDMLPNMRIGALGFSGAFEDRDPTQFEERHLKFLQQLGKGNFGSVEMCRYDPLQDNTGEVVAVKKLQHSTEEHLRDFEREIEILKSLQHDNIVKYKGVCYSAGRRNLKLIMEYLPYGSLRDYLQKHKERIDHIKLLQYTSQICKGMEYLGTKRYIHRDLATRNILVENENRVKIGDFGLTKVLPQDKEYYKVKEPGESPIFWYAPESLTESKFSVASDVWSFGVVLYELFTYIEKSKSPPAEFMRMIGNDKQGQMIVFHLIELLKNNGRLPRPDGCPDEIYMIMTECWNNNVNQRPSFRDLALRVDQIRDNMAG

Take `CC(=O)O` [Acetate]: in series [1], the “AUC 0-inf” value amounted to 1200.1 ng·h/mL, the peak concentration (Cmax) was found to be 176.8 ng/mL, the F stood at 24.7 % IV and the time to peak (Tmax) is given as 0.5 h. In addition, in series [1], the t½ is 5.8 h.

`CN1CCN(c2ccc(Nc3ncc(Cl)c(Nc4cccc(CC#N)c4)n3)cc2F)CC1` [Compound 1, 2-(3-((5-chloro-2((3-fluoro-4-(4-methylpiperazin-1-yl)phenyl)amino)pyrimidin-4-yl)amino)phenyl)acetonitrile]: the half-maximal inhibitory concentration (IC50) in series [2] and in series [3] was > 1000 nM each time.

Regarding `Cc1cnc(Nc2ccc(N3CCN(C)CC3)c(F)c2)nc1Nc1cccc(CC#N)c1` [Compound 2, 2-(3-((2-((3-fluoro-4-(4-methylpiperazin-1-yl)phenyl)amino)-5-methylpyrimidin-4-yl)amino)phenyl)acetonitrile], the IC50 in series [2] and in series [3] was > 1000 nM in each case.

Turning to `CN1CCN(c2ccc(Nc3ncc(C#N)c(Nc4cccc(CC#N)c4)n3)cc2F)CC1` [Compound 3, 4-((3-(cyanomethyl)phenyl)amino)-2((3-fluoro-4-(4-methylpiperazin-1-yl)phenyl)amino)pyrimidine-5-carbonitrile], the IC50 in series [2] and in series [3] was > 1000 nM each time.

`COc1cc(Nc2nccc(Nc3cccc(C4(C#N)CC4)c3)n2)cc(OC)c1OC` [Compound 5, 1-(3-(2-(3,4,5-trimethoxyphenylamino)pyrimidin-4-ylamino)phenyl)cyclopropanecarbonitrile]: the IC50 in series [2] is < 10 nM; in series [3], > 1000 nM.

For `N#CC1(c2cccc(Nc3ccnc(Nc4ccc(N5CCN(CCO)CC5)c(Cl)c4)n3)c2)CC1` [Compound 7, 1-(3-((2-((3-chloro-4-(4-(2-hydroxyethyl)piperazin-1-yl)phenyl)amino)pyrimidin-4-yl)amino)phenyl) cyclopropanecarbonitrile], the values for the IC50 in series [2] and in series [3] were < 10 nM and 10 to 1000 nM, respectively. Also, the “decrease in the BMP2 induction of hepcidin” value in series [4] came out at 50%.

Regarding `CN1CCN(c2ccc(Nc3nccc(Nc4cccc(C5(C#N)CC5)c4)n3)cc2F)CC1` [Compound 8, 1-(3-((2-((3-fluoro-4-(4-methylpiperazin-1-yl)phenyl)amino)pyrimidin-4-yl)amino)phenyl)cyclopropanecarbonitrile], the results for the IC50 in series [2] and in series [3] were < 10 nM and 10 to 1000 nM, respectively.

With `COc1cnc(Nc2ccc(N3CCN(CCO)CC3)c(Cl)c2)nc1Nc1cccc(C2(C#N)CC2)c1` [Compound 9, 1-(3-(2-(3-chloro-4-(4-(2-hydroxyethyl)piperazin-1-yl)phenylamino)-5-methoxypyrimidin-4-ylamino)phenyl)cyclopropanecarbonitrile], the figures for the IC50 in series [2] and in series [3] were 10 to 1000 nM and > 1000 nM, respectively.

Turning to `OCCN1CCN(c2ccc(Nc3nccc(Nc4cccnc4-c4ccccn4)n3)cc2Cl)CC1` [Compound 10, 2-(4-(4-(4-(2,2′-bipyridin-3-ylamino)pyrimidin-2-ylamino)-2-chlorophenyl)piperazin-1-yl)ethanol], the IC50 in series [2] and in series [3] was 10 to 1000 nM in each case.

`COc1cc(Nc2nccc(Nc3cccnc3-c3ccccn3)n2)ccc1N1CCN(C)CC1` [Compound 11, N^4-(2,2′-bipyridin-3-yl)-N^2-(3-methoxy-4-(4-methylpiperazin-1-yl)phenyl)pyrimidine-2,4-diamine]: the figures for the IC50 in series [2] and in series [3] were > 1000 nM and < 10 nM, respectively.

`COc1cc(Nc2nccc(Nc3cccnc3-c3ccccn3)n2)cc(OC)c1OC` [Compound 12, N^4-(2,2′-bipyridin-3-yl)-N^2-(3,4,5-trimethoxyphenyl)pyrimidine-2,4-diamine]: the values for the half-inhibitory concentration (IC50) in series [2] and in series [3] were > 1000 nM and < 10 nM, respectively. Moreover, the Hepcidin expression inhibited in series [5] was found to be 90%. Besides, the “plasma concentration levels after 24 hours” value in series [1] (female rats, 24 hours) is listed as “remained high”. The same compound had a bioavailability in series [1] (rat, plasma, female rats, oral dose) of 95%.

As for `COc1cnc(Nc2ccc(N3CCN(CCO)CC3)c(Cl)c2)nc1Nc1cccnc1-c1ccccn1` [Compound 13, 2-(4-(4-(4-(2,2′-bipyridin-3-ylamino)-5-methoxypyrimidin-2-ylamino)-2-chlorophenyl)piperazin-1-yl)ethanol], the IC50 in series [2] and in series [3] was > 1000 nM throughout.

For the compound `COc1cc(Nc2ncc(OC)c(Nc3cccnc3-c3ccccn3)n2)ccc1N1CCN(C)CC1` [Compound 14, N^4-([2,2′-bipyridin]-3-yl)-5-methoxy-N^2-(3-methoxy-4-(4-methylpiperazin-1-yl)phenyl)pyrimidine-2,4-diamine], the IC50 in series [2] is 10 to 1000 nM; in series [3] it was > 1000 nM.

`Cc1ccc(Nc2ccnc(Nc3ccc(N4CCN(CCO)CC4)c(Cl)c3)n2)c(-c2ccccn2)n1` [Compound 15, 2-(4-(2-chloro-4-(4-(6-methyl-2,2′-bipyridin-3-ylamino)pyrimidin-2-ylamino)phenyl)piperazin-1-yl)ethanol]: the IC50 is > 1000 nM in series [2] and 10 to 1000 nM in series [3].

Take `COc1cc(Nc2nccc(Nc3ccc(C)nc3-c3ccccn3)n2)ccc1N1CCN(C)CC1` [Compound 16, N^2-(3-methoxy-4-(4-methylpiperazin-1-yl)phenyl)-N^4-(6-methyl-2,2′-bipyridin-3-yl)pyrimidine-2,4-diamine]: the IC50 in series [2] is > 1000 nM; in series [3], 10 to 1000 nM.

Regarding `COc1cc(Nc2nccc(Nc3ccc(C)nc3-c3ccccn3)n2)cc(OC)c1OC` [Compound 17, N^4-(6-methyl-2,2′-bipyridin-3-yl)-N^2-(3,4,5-trimethoxyphenyl)pyrimidine-2,4-diamine], the half-inhibitory concentration (IC50) is > 1000 nM in series [2] and 10 to 1000 nM in series [3].

On to `Cc1ccc(Nc2ccnc(Nc3ccc(N4CCN(CCO)CC4)c(Cl)c3)n2)c(CC#N)c1` [Compound 18, 2-(2-(2-(3-chloro-4-(4-(2-hydroxyethyl)piperazin-1-yl)phenylamino)pyrimidin-4-ylamino)-5-methylphenyl)acetonitrile], for which the IC50 in series [2] and in series [3] was 10 to 1000 nM in each case.

On to `COc1cc(Nc2nccc(Nc3ccc(C)cc3CC#N)n2)ccc1N1CCN(C)CC1` [Compound 19, 2-(2-(2-(3-methoxy-4-(4-methylpiperazin-1-yl)phenylamino)pyrimidin-4-ylamino)-5-methylphenyl)acetonitrile], for which the IC50 in series [2] and in series [3] was 10 to 1000 nM throughout.

In the case of `COc1cc(Nc2nccc(Nc3ccc(C)c(CC#N)c3)n2)ccc1N1CCN(C)CC1` [Compound 21, 2-(5-(2-(3-methoxy-4-(4-methylpiperazin-1-yl)phenylamino)pyrimidin-4-ylamino)-2-methylphenyl)acetonitrile], the IC50 is < 10 nM in series [2] and 10 to 1000 nM in series [3].

As to `N#CCc1cc(F)ccc1Nc1ccnc(Nc2ccc(N3CCN(CCO)CC3)c(Cl)c2)n1` [Compound 22, 2-(2-(2-(3-chloro-4-(4-(2-hydroxyethyl)piperazin-1-yl)phenylamino)pyrimidin-4-ylamino)-5-fluorophenyl) acetonitrile], the IC50 in series [2] and in series [3] was 10 to 1000 nM in each case.

Turning to `O=C(O)C(O)C(O)C(=O)O` (stereo not shown) [Tartaric], in series [1], the “AUC 0-inf” value is 370.9 ng·h/mL, the maximum concentration (Cmax) was 18.5 ng/mL and the Tmax was 0.3 h.

As for Citrate, in series [1], the “AUC 0-inf” value came out at 801.5 ng·h/mL, the Cmax came out at 93.4 ng/mL, the F is 22.4 % IV and the Tmax is recorded as 0.5 h. The t½ in series [1] came out at 6.8 h.

In the case of H2SO4 [Compound H2SO4], in series [1], the “AUC 0-inf” value amounted to 538.3 ng·h/mL, the Cmax is given as 53.8 ng/mL, the F came out at 17.8 % IV and the Tmax was 1.0 h. For the same compound, the t½ in series [1] was 9.2 h.

Maleate: in series [1], the “AUC 0-inf” value is 484.8 ng·h/mL, the Cmax was determined as 34.2 ng/mL, the F was found to be 12.1 % IV and the Tmax came to 8.0 h. The t½ in series [1] is given as 8.5 h.

Take Oxalate: in series [1], the “AUC 0-inf” value was found to be 721.2 ng·h/mL, the Cmax is 81.9 ng/mL, the F is given as 17.3 % IV and the time of peak concentration (Tmax) came out at 0.5 h. Moreover, in series [1], the t½ is 7.3 h.

(Values after patent US10202356B2, “JAK2 and ALK2 inhibitors and methods for their use” (Tolero Pharmaceuticals, Inc., priority 2013, dated 2019).)
